Tested on: not listed separately
Test: Oral EPO study in normal male volunteers: plasma EPO levels by radioimmunoassay
Type: in vivo, human
Details: Study Day 1, 10 IU/kg intravenous infusion
Procedure: (§1) Eight healthy, normal male volunteers participated in this study. After overnight fasting, on Study Day 1 the subjects received medication as follows:
(§2) Blood samples were collected at time 0, 0.5, 1, 2, 3, 4, 6, 10 and 14 hours after the medication; reticulocyte counts (%) were made and plasma EPO levels were measured by radioimmunoassay.
(§3) On Day 2 and Day 3, each subject was given the assigned coded study medications at 08:00 a.m., 14:00 p.m. and 22:00 p.m. and, after an overnight fast, on Study Day 4, each subject was examined again after having been given the study medications as above.
In the case of Erythropoietin [EPO], the “plasma RIA-measured EPO levels” value is reported as “markedly increased”.

Tested on: not given
Test: not given
Details: in vivo; cited from earlier work
For POE(2) cetyl ether, the LD50 is listed as 22000 mg/kg. For POE(2) oleyl ether, the LD50 is given as 25000 mg/kg. In the case of POE(2) stearyl ether, the LD50 is given as over 25000 mg/kg. In the case of POE(4) lauryl ether, the LD50 is given as 9000 mg/kg. In the case of POE(4) sorbitan monostearate, the LD50 is given as over 40000 mg/kg. For POE(5) sorbitan monooleate, the LD50 is listed as over 37000 mg/kg. For POE(23) lauryl ether, the LD50 is given as 9000 mg/kg. In the case of Sorbitan monolaurate, the LD50 is listed as 41000 mg/kg. In the case of Sorbitan monooleate, the LD50 is given as over 40000 mg/kg. For Sorbitan monopalmitate, the LD50 is given as over 16000 mg/kg. For Sorbitan monostearate, the LD50 is given as 31000 mg/kg. For Sorbitan trioleate, the LD50 is listed as over 40000 mg/kg. For Sorbitan tristearate, the LD50 is listed as over 16000 mg/kg.

Tested on: reticulocyte counts
Test: Oral EPO study in normal male volunteers: reticulocyte counts
Type: in vivo, human
Details: Study Day 4, 10 IU/Kg intravenous infusion
Procedure: as §1, §2, §3
In the case of Erythropoietin [EPO], the Reticulocyte counts is reported as “increased”.
